In this test the test system is Haemonchus contortus. Put plainly: Method A: Haemonchus contortus L1 larvae, microtitre plate screen. As to conditions: 96 h, read-out: motility inhibition.

Our source for the inhibition values is patent publication US9249102B2 (priority 2012, dated 2016).

The inhibition is the change of the read-out against control, counted positive when it falls.

`C[C@@H]([C@@H]1Cc2cc(F)ccc2O1)N1CCN(C(=O)COC2CCC(Nc3ccc([N+](=O)[O-])c(C(F)(F)F)c3)CC2)CC1` (relative stereo) [Compound 260-10, 1-(4-((S)-1-((S)-5-fluoro-2,3-dihydrobenzofuran-2-yl)ethyl)piperazin-1-yl)-2-(4-(4-nitro-3-(trifluoromethyl)phenylamino)cyclohexyloxy)ethanone]: the inhibition at 5 µg/mL was at least 90%.
The result for `CC(CN1CCN(c2ccc3cc(F)ccc3c2)CC1)C(=O)N1CCC(Nc2ccc([N+](=O)[O-])c(C(F)(F)F)c2)CC1` (centres unmarked) [Compound 16, 3-[4-(6-fluoronaphthalen-2-yl)piperazin-1-yl]-2-methyl-1-(4-[[4-nitro-3-(trifluoromethyl)phenyl]amino]piperi-din-1-yl)propan-1-one] reads at least 90%; that for `O=C(COc1ccc(Nc2ccc([N+](=O)[O-])c(C(F)(F)F)c2)cc1)N1CCN(CC2Cc3cc(Cl)ccc3O2)CC1` (centres unmarked) [Compound 68, 1-[4-[(5-chloro-2,3-dihydro-1-benzofuran-2-yl)methyl]piperazin-1-yl]-2-(4-[[4-nitro-3-(trifluoromethyl)phenyl]amino]phenoxy)ethan-1-one], at least 90%.
For the compound `O=C(NCCO[C@H]1CC[C@H](Nc2ccc([N+](=O)[O-])c(C(F)(F)F)c2)CC1)C(=O)Nc1ccc2ccccc2c1` [Compound 75, N-(naphthalen-2-yl)-N-[2-[(4-[[4-nitro-3-(trifluoromethyl)phenyl]amino]cyclohexyl)oxy]ethyl]ethanediamide], the inhibition at 5 µg/mL was at least 90%.
In the case of `N#Cc1ccc(N[C@H]2CC[C@H](OCC(=O)N3CCN(C(=O)C4Cc5cc(Cl)ccc5O4)CC3)CC2)cc1C(F)(F)F` (some centres unmarked) [Compound 85, 4-(4-{2-[4-(5-chloro-2,3-dihydro-benzofuran-2-carbonyl)-piperazin-1-yl]-2-oxo-ethoxy}-cyclohexylamino)-2-trifluoromethyl-benzonitrile], the inhibition at 5 µg/mL is at least 90%.
The result for `N#Cc1ccc(N[C@H]2CC[C@H](OCC(=O)N3CCN(C(=O)C4Cc5cc(F)ccc5O4)CC3)CC2)cc1C(F)(F)F` (some centres unmarked) [Compound 86, 4-(4-{2-[4-(5-fluoro-2,3-dihydro-benzofuran-2-carbonyl)-piperazin-1-yl]-2-oxo-ethoxy}-cyclohexylamino)-2-trifluoromethyl-benzonitrile] reads at least 90%; that for `CC(CN1CCN(c2ccc3ccccc3n2)CC1)C(=O)N1CCC(Nc2ccc([N+](=O)[O-])c(C(F)(F)F)c2)CC1` (centres unmarked) [Compound 91, 2-methyl-1-(4-[[4-nitro-3-(trifluoromethyl)phenyl]amino]piperidin-1-yl)-3-[4-(quinolin-2-yl)piperazin-1-yl]propan-1-one], at least 90%.
Consider `O=C(COc1ccc2ccc([N+](=O)[O-])c(C(F)(F)F)c2c1)N1CCN(c2ccc3cc(C(F)(F)F)ccc3n2)CC1` [Compound 131, 2-[[7-nitro-8-(trifluoromethyl)naphthalen-2-yl]oxy]-1-[4-[6-(trifluoromethyl)quinolin-2-yl]piperazin-1-yl]ethan-1-one], for which the inhibition at 5 µg/mL is at least 90%.
Take `O=C(NCCO[C@H]1CC[C@H](Nc2ccc([N+](=O)[O-])c(C(F)(F)F)c2)CC1)C(=O)Nc1ccc2cc(C(F)(F)F)ccc2c1` [Compound 173]: the inhibition at 5 µg/mL was at least 90%.
Consider `O=C(NCCO[C@H]1CC[C@H](Nc2ccc([N+](=O)[O-])c(C(F)(F)F)c2)CC1)C(=O)Nc1ccc2cc(Cl)ccc2c1` [Compound 174], for which the inhibition at 5 µg/mL was at least 90%.
With `O=C(COc1ccc(Nc2ccc([N+](=O)[O-])c(C(F)(F)F)c2)cc1)N1CCN(C(=O)c2cc3cc(C(F)(F)F)ccc3o2)CC1` [Compound 191, 2-(4-[[4-nitro-3-(trifluoromethyl)phenyl]amino]phenoxy)-1-(4-[[5-(trifluoromethyl)-1-benzofuran-2-yl]carbonyl]piperazin-1-yl)ethan-1-one], the inhibition at 5 µg/mL was at least 90%.
